pKd: −log10 of the molar value.
target: T1, mutant MGL (Homo sapiens, UniProt Q99685, L169S/L176S); assay: MGL ThermoFluor assay - mutant; format: binding; details: ThermoFluor concentration-response, read-out: MGL mutant ThermoFluor Kd
T1 sequence (Q99685 1-303 L169S/L176S): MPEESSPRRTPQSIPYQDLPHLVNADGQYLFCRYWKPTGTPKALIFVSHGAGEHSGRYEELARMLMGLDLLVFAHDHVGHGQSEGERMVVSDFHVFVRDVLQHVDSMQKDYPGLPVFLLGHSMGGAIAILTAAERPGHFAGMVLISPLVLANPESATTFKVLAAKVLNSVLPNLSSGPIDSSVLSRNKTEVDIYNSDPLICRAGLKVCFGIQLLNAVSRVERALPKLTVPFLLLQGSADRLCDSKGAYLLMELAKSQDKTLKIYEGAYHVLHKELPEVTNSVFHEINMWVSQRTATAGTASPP

pKd | SMILES
5.34 | O=C(c1ccccc1)N1CCN(C2CN(C(=O)c3ccc(Br)cc3)C2)CC1 [Cpd 27, 1-{1-[(4-Bromophenyl)carbonyl]azetidin-3-yl}-4-(phenylcarbonyl)piperazine]
5.90 | O=C(c1ccccc1)C1CCC(C(=O)N2CC(N3CCN(C(=O)c4ccccc4)CC3)C2)CC1 (stereo not drawn) [Cpd 108, Phenyl[4-({3-[4-(phenylcarbonyl)piperazin-1-yl]azetidin-1-yl}carbonyl)cyclohexyl]methanone]
< 4.51 | O=C(c1ccc(-c2ccccc2)cc1)N1CC(N2CCN(C(=O)c3nccs3)C(c3ccccc3)C2)C1 (stereo not drawn) [Cpd 1404, 4-[1-(Biphenyl-4-ylcarbonyl)azetidin-3-yl]-2-phenyl-1-(1,3-thiazol-2-ylcarbonyl)piperazine]
7.00 | O=C(c1ccccc1)N1CCN(C2CN(C(=O)c3ccc(N4CCCCC4)cc3)C2)CC1 [Cpd 53, 1-(Phenylcarbonyl)-4-{1-[(4-piperidin-1-ylphenyl)carbonyl]azetidin-3-yl}piperazine]
8.04 | O=C(c1ccccc1)N1CCN(C2CN(C(=O)c3ccc(-c4ccc(F)cc4)cc3)C2)CC1 [Cpd 33, 1-{1-[(4′-Fluorobiphenyl-4-yl)carbonyl]azetidin-3-yl}-4-(phenylcarbonyl)piperazine]
< 4.51 | O=C(c1ccccc1)N1CCN(C2CN(C(=O)c3ccc(=O)n(Cc4ccccc4)c3)C2)CC1 [Cpd 565, 1-Benzyl-5-({3-[4-(phenylcarbonyl)piperazin-1-yl]azetidin-1-yl}carbonyl)pyridin-2(1H)-one]
6.72 | O=C(c1ccccc1)N1CCN(C2CN(C(=O)c3ccc(Oc4ccccc4)cc3)C2)CC1 [Cpd 32, 1-{1-[(4-Phenoxyphenyl)carbonyl]azetidin-3-yl}-4-(phenylcarbonyl)piperazine]
5.18 | O=C(c1ccccc1)N1CCN(C2CN(C(=O)c3ccc(F)cc3)C2)CC1 [Cpd 49, 1-{1-[(4-Fluorophenyl)carbonyl]azetidin-3-yl}-4-(phenylcarbonyl)piperazine]
4.70 | O=C(c1ccccc1)N1CCN(C2CN(C(=O)c3ccc(Oc4ccccn4)cc3)C2)CC1 [Cpd 1484]
5.41 | O=C(c1ccc(Oc2ccccn2)cc1)N1CC(N2CCN(C(=O)c3cscn3)CC2)C1 [Cpd 922]
5.30 | O=C(/C=C/c1ccc2ccccc2c1)N1CC(N2CCN(C(=O)c3ccccc3)CC2)C1 [Cpd 105, 1-{1-[(2E)-3-Naphthalen-2-ylprop-2-enoyl]azetidin-3-yl}-4-(phenylcarbonyl)piperazine]
5.00 | O=C(c1cscn1)N1CCN(C2CN(C(=O)c3ccc(Br)cc3Cl)C2)CC1 [Cpd 25, 1-{1-[(4-Bromo-2-chlorophenyl)carbonyl]azetidin-3-yl}-4-(1,3-thiazol-4-ylcarbonyl)piperazine]
5.48 | O=C(c1ccc(Cc2ccccc2)cc1)N1CC(N2CCN(C(=O)c3ccccc3)C(CO)C2)C1 (stereo not drawn) [Cpd 459, [4-{1-[(4-Benzylphenyl)carbonyl]azetidin-3-yl}-1-(phenylcarbonyl)piperazin-2-yl]methanol]
6.60 | O=C(c1ccccc1)N1CCN(C2CN(C(=O)c3ccc(Oc4cccc(Cl)c4)cc3)C2)CC1 [Cpd 426]
6.97 | O=C(c1ccc(-c2ccccc2)cc1)N1CCN(C2CN(C(=O)c3ccc[nH]3)C2)CC1 [Cpd 1383, 1-(Biphenyl-4-ylcarbonyl)-4-[1-(1H-pyrrol-2-ylcarbonyl)azetidin-3-yl]piperazine]
8.00 | O=C(c1ccc(SCc2cccc(Cl)c2)cc1)N1CC(N2CCN(C(=O)c3nccs3)CC2)C1 [Cpd 412, 1-[1-({4-[(3-Chlorobenzyl)sulfanyl]phenyl}carbonyl)azetidin-3-yl]-4-(1,3-thiazol-2-ylcarbonyl)piperazine]
5.00 | O=C(c1cc(Br)cc(C(F)(F)F)c1)N1CC(N2CCN(C(=O)c3cscn3)CC2)C1 [Cpd 923]
< 4.12 | Cc1cc(Br)ccc1C(=O)N1CC(N2CCN(C(=O)c3ccccc3)CC2)C1 [Cpd 22, 1-{1-[(4-Bromo-2-methylphenyl)carbonyl]azetidin-3-yl}-4-(phenylcarbonyl)piperazine]
6.93 | CCN(CC)c1ccc(C(=O)N2CC(N3CCN(C(=O)c4ccccc4)CC3)C2)cc1 [Cpd 30, N,N-Diethyl-4-({3-[4-(phenylcarbonyl)piperazin-1-yl]azetidin-1-yl}carbonyl)aniline]
< 4.20 | O=C(c1cscn1)N1CCN(C2CN(C(=O)c3cc(Br)ccc3F)C2)CC1 [Cpd 925]
7.46 | O=C(c1ccc2c(c1)C(Cc1ccccc1)(Cc1ccccc1)C(=O)N2Cc1ccccc1)N1CC(N2CCN(C(=O)c3nccs3)CC2)C1 [Cpd 1431]
6.60 | Cc1ccc(C(=O)N2CCN(C3CN(C(=O)c4ccc(-c5ccccc5)cc4)C3)CC2)s1 [Cpd 14, 1-[1-(Biphenyl-4-ylcarbonyl)azetidin-3-yl]-4-[(5-methylthiophen-2-yl)carbonyl]piperazine]
5.04 | O=C(c1ccc(-c2ccccc2)cc1)N1CC(N2CCN(C(=O)c3ccccc3)C(CO)C2)C1 (stereo not drawn) [Cpd 460, {4-[1-(Biphenyl-4-ylcarbonyl)azetidin-3-yl]-1-(phenylcarbonyl)piperazin-2-yl}methanol]
5.88 | O=C(c1cc(F)cc(Br)c1)N1CC(N2CCN(C(=O)c3nccs3)CC2)C1 [Cpd 912]
6.25 | Cc1nc(C(=O)N2CCN(C3CN(C(=O)c4ccc(-c5ccccc5)cc4)C3)CC2)cs1 [Cpd 10, 1-[1-(Biphenyl-4-ylcarbonyl)azetidin-3-yl]-4-[(2-methyl-1,3-thiazol-4-yl)carbonyl]piperazine]
8.40 | O=C(c1ccc(Oc2cccc(Cl)c2)cc1)N1CC(N2CCN(C(=O)c3nccs3)CC2)C1 [Cpd 421, 1-(1-{[4-(3-Chlorophenoxy)phenyl]carbonyl}azetidin-3-yl)-4-(1,3-thiazol-2-ylcarbonyl)piperazine]
6.43 | O=C(c1ccccc1)N1CCN(C2CN(C(=O)c3ccc(CNc4ccccc4F)cc3)C2)CC1 [Cpd 553]
5.70 | O=C(c1ccc(-c2ccccc2)cc1)N1CCN(C2CN(C(=O)c3cscn3)C2)C(c2ccccc2)C1 (stereo not drawn) [Cpd 1402, 4-(Biphenyl-4-ylcarbonyl)-2-phenyl-1-[1-(1,3-thiazol-4-ylcarbonyl)azetidin-3-yl]piperazine]
5.30 | O=C(c1nccs1)N1CCN(C2CN(C(=O)c3cc(Br)ccc3F)C2)CC1 [Cpd 915]
6.81 | Cc1nc(-c2cccc(Cl)c2)sc1C(=O)N1CC(N2CCN(C(=O)c3ccccc3)CC2)C1 [Cpd 620, 1-(1-{[2-(3-Chlorophenyl)-4-methyl-1,3-thiazol-5-yl]carbonyl}azetidin-3-yl)-4-(phenylcarbonyl)piperazine]

same assay, conditions: ThermoFluor thermal stability binding assay, read-out: MGL mutant ThermoFluor Kd

pKd | SMILES
6.32 | O=C(/C=C/c1ccccc1Br)N1CC(N2CCN(C(=O)c3nccs3)CC2)C1 [Cpd 296, 1-{1-[(2E)-3-(2-Bromophenyl)prop-2-enoyl]azetidin-3-yl}-4-(1,3-thiazol-2-ylcarbonyl)piperazine]
6.60 | N#Cc1csc(C(=O)N2CCN(C3CN(C(=O)c4ccc(-c5ccccc5)cc4)C3)CC2)c1 [Cpd 309]
< 4.12 | CC(=O)Nc1nc(C(=O)N2CCN(C3CN(C(=O)c4ccc(-c5ccccc5)cc4)C3)CC2)cs1 [Cpd 480]
6.60 | O=C(c1ccccc1)N1CCN(C2CN(C(=O)c3ccc4oc(-c5ccccc5)nc4c3)C2)CC1 [Cpd 132]
8.30 | O=C(c1ccc(OCc2ccc(Cl)s2)cc1)N1CC(N2CCN(C(=O)c3nccs3)CC2)C1 [Cpd 962]
6.37 | O=C(c1cscn1)N1CCN(C2CN(C(=O)c3cccc4nc(-c5cccc(Cl)c5)[nH]c34)C2)CC1 [Cpd 1389]
< 4.12 | CC(=O)N1c2ccc(Br)cc2CCC1C(=O)N1CC(N2CCN(C(=O)c3cscn3)CC2)C1 (stereo not drawn) [Cpd 377]
9.30 | Cc1cc(C(=O)N2CC(N3CCN(C(=O)c4nccs4)CC3)C2)ccc1-c1cccc(C(F)(F)F)c1 [Cpd 241, 1-(1-{[2-Methyl-3′-(trifluoromethyl)biphenyl-4-yl]carbonyl}azetidin-3-yl)-4-(1,3-thiazol-2-ylcarbonyl)piperazine]
< 4.51 | O=C(c1cscn1)N1CCN(C2CN(C(=O)c3cnn(-c4ccccc4)c3C(F)(F)F)C2)CC1 [Cpd 1477]
5.59 | CC(C)(C)OC(=O)N1CCC(c2cccc(C(=O)N3CC(N4CCN(C(=O)c5ccccc5)CC4)C3)c2)CC1 [Cpd 538]
5.15 | CC(=O)N1c2ccc(Br)cc2CCC1C(=O)N1CC(N2CCN(C(=O)c3nccs3)CC2)C1 (stereo not drawn) [Cpd 376, 1-Acetyl-6-bromo-2-({3-[4-(1,3-thiazol-2-ylcarbonyl)piperazin-1-yl]azetidin-1-yl}carbonyl)-1,2,3,4-tetrahydroquinoline]
6.99 | O=C(c1ccc(OCc2ccc(Cl)s2)cc1)N1CC(N2CCN(C(=O)c3cscn3)CC2)C1 [Cpd 963]
7.70 | O=C(c1ccccc1)N1CCN(C2CN(C(=O)c3ccc(OCc4cccc(Cl)c4Cl)c(F)c3)C2)CC1 [Cpd 483]
8.70 | O=C(c1ccc(OCc2cccc(Cl)c2Cl)c(F)c1)N1CC(N2CCN(C(=O)c3nccs3)CC2)C1 [Cpd 405, 1-[1-({4-[(2,3-Dichlorobenzyl)oxy]-3-fluorophenyl}carbon-yl)azetidin-3-yl]-4-(1,3-thiazol-2-ylcarbonyl)piperazine]
6.64 | O=C(c1ccc2c(c1)CCCN2c1ncccn1)N1CC(N2CCN(C(=O)c3nccs3)CC2)C1 [Cpd 375, 1-Pyrimidin-2-yl-6-({3-[4-(1,3-thiazol-2-ylcarbonyl)piperazin-1-yl]azetidin-1-yl}carbonyl)-1,2,3,4-tetrahydroquinoline]
5.60 | O=C1Cc2cc(C(=O)N3CC(N4CCN(C(=O)c5nccs5)CC4)C3)ccc2N1 [Cpd 918]
5.37 | O=C(c1ccccc1)N1CCN(C2CN(C(=O)c3ccc(OCc4ccncc4)cc3)C2)CC1 [Cpd 396]
6.80 | O=C(c1ccccc1)N1CCN(C2CN(C(=O)c3ccc(OCc4ccc(C(F)(F)F)c(F)c4)cc3)C2)CC1 [Cpd 395]

Reference: patent US8362000B2, “Azetidinyl diamides as monoacylglycerol lipase inhibitors” (Janssen Pharmaceutica NV, priority 2009, dated 2013)
